In the NIST ThermoML archive (doi:10.1016/j.jct.2011.02.008):

Experiment: xn = mol fraction of the nth substance listed
Conditions: Liquid, Vibrating tube method

COC(=O)c1ccccc1 [methyl benzoate] + CCCCCCO
mass density [kg/m3]
Conditions	x1 = 0.1004	x1 = 0.2007	x1 = 0.3007	x1 = 0.4013	x1 = 0.5005	x1 = 0.6009	x1 = 0.7	x1 = 0.8008	x1 = 0.9009
278.15 K, 100 kPa	856.6	883.8	911.4	938.8	966	993.4	1020.3	1047.7	1075.1
278.15 K, 1000 kPa	857.1	884.4	911.9	939.4	966.5	993.9	1020.8	1048.2	1075.5
278.15 K, 5000 kPa	859.7	886.9	914.4	941.8	968.9	996.3	1023.2	1050.6	1077.9
278.15 K, 10000 kPa	862.7	889.9	917.3	944.8	971.9	999.2	1026	1053.4	1080.7
278.15 K, 15000 kPa	865.6	892.8	920.3	947.6	974.7	1002	1028.9	1056.3	1083.5
278.15 K, 20000 kPa	868.5	895.6	923.1	950.4	977.5	1004.7	1031.6	1059	1086.2
278.15 K, 25000 kPa	871.2	898.3	925.8	953.1	980.2	1007.4	1034.2	1061.6	1088.7
278.15 K, 30000 kPa	873.8	901	928.4	955.8	982.8	1010	1036.8	1064.2	1091.3
278.15 K, 35000 kPa	876.5	903.6	931	958.3	985.4	1012.6	1039.4	1066.7	1093.8
278.15 K, 40000 kPa	879	906.1	933.6	960.9	987.9	1015.1	1041.9	1069.2	1096.3
278.15 K, 45000 kPa	881.5	908.6	936	963.3	990.4	1017.6	1044.3	1071.7	1098.7
278.15 K, 50000 kPa	883.9	911.1	938.5	965.8	992.8	1020	1046.7	1074	1101.1
278.15 K, 55000 kPa	886.3	913.4	940.8	968.1	995.2	1022.3	1049.1	1076.4	1103.5
278.15 K, 60000 kPa	888.4	915.6	943	970.3	997.3	1024.5	1051.4	1078.7	1105.6
288.15 K, 100 kPa	849.1	876	903.2	930.4	957.3	984.4	1011.1	1038.4	1065.5
288.15 K, 1000 kPa	849.7	876.6	903.8	931	957.9	985	1011.7	1039	1066
288.15 K, 5000 kPa	852.3	879.2	906.4	933.6	960.4	987.5	1014.2	1041.4	1068.5
288.15 K, 10000 kPa	855.5	882.4	909.5	936.7	963.5	990.6	1017.2	1044.5	1071.5
288.15 K, 15000 kPa	858.5	885.5	912.6	939.7	966.5	993.6	1020.2	1047.4	1074.4
288.15 K, 20000 kPa	861.5	888.4	915.5	942.6	969.4	996.4	1023	1050.2	1077.2
288.15 K, 25000 kPa	864.3	891.2	918.3	945.4	972.2	999.3	1025.8	1053	1080
288.15 K, 30000 kPa	867.1	894	921.1	948.2	975	1002	1028.5	1055.7	1082.6
288.15 K, 35000 kPa	869.8	896.7	923.8	950.9	977.7	1004.6	1031.2	1058.3	1085.2
288.15 K, 40000 kPa	872.4	899.3	926.4	953.5	980.2	1007.2	1033.8	1060.9	1087.8
288.15 K, 45000 kPa	875	901.8	929	956	982.8	1009.8	1036.3	1063.4	1090.3
288.15 K, 50000 kPa	877.5	904.4	931.5	958.5	985.3	1012.3	1038.8	1065.9	1092.8
288.15 K, 55000 kPa	879.9	906.8	933.9	961	987.8	1014.7	1041.3	1068.3	1095.2
288.15 K, 60000 kPa	882.3	909.2	936.2	963.2	990	1017	1043.7	1070.6	1097.5
298.15 K, 100 kPa	841.5	868.2	895.1	922	948.6	975.5	1002	1029.1	1056
298.15 K, 1000 kPa	842.2	868.8	895.7	922.6	949.2	976.1	1002.6	1029.7	1056.6
298.15 K, 5000 kPa	844.9	871.6	898.4	925.3	951.9	978.8	1005.3	1032.3	1059.2
298.15 K, 10000 kPa	848.3	874.9	901.7	928.5	–	–	–	–	–
